Here are results for one compound from patent US20140271881A1, “ANTISEPTIC COMPOSITION” (priority 2011, published 2014).

Assay [1] deals with acute traumatic or chronic wounds. Briefly: Clinical study on 6 dogs with acute traumatic or chronic wounds with delayed healing. The format is in vivo. The procedure:
A clinical study of the effect of the combination used in the present invention was carried out on 6 dogs carrying inflammatory pathological conditions having led to acute traumatic or chronic wounds caused by lesion due to scratching with delayed healing.
The composition of the invention was applied in spray lotion form, twice a day, directly onto the wound to be treated. The results were observed 1 (D1), 2(D2), 3(D3), 5(D5) and 7(D7) days after the 1st application.

Assay [2] concerns traumatic or chronic wounds.

Take `Nc1ccc(S(=O)(=O)Nc2ncccn2)cc1` [sulfadiazine]: the “Rapidity of response to the applications” value in assay [1] (acute or chronic wounds, observed most commonly) is listed as “such a rapid response is never observed”. Further, in assay [1] (the 6 dogs, before the study), the “Effectiveness of treatments carried out previously” value is “ineffective”. Further, the Effectiveness on healing result in assay [2] is “not very effective”.
